Results published in PubChem BioAssay AID1963434 (Molecular Pharmacology Branch, DTP, NCI, 2024).
Several values for one entry are separate records, joined by “and”; a condition that tells them apart may be missing. Equal values may be shown once. One block for each compound: values may come before it.

Test system: 755483-174-R-J1-PDC complex spheroid growth, percent test/control
Test: Anticancer human tumor 755483-174-R-J1-PDC patient-derived rhabdomyosarcoma cell line growth inhibition [Asc]
Conditions: for viability, T/C: stronger effect = lower value
How it was run: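 Tumor cells were grown as complex spheroids with human endothelial cells (HUVEC) and human mesenchymal stem cells as stroma. Agents were tested alone and in combination, in half-log steps down from the clinical Cmax, or from 10 microM where Cmax was unknown.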

[1] = curve of first compound, second compound 0.01 µM
[2] = curve of first compound, second compound 0.0316 µM
[3] = curve of first compound, second compound 0.1 µM
[4] = curve of first compound, second compound 0.316 µM
[5] = curve of first compound, second compound 1 µM
[6] = second compound 0.01 µM, first compound 0.0316 µM
[7] = second compound 0.01 µM, first compound 0.1 µM
[8] = second compound 0.0316 µM, first compound 0.0316 µM
[9] = second compound 0.0316 µM, first compound 0.1 µM
[10] = second compound 0.1 µM, first compound 0.0316 µM
[11] = second compound 0.1 µM, first compound 0.1 µM
[12] = second compound 0.316 µM, first compound 0.0316 µM
[13] = second compound 0.316 µM, first compound 0.1 µM
[14] = second compound 1 µM, first compound 0.0316 µM
[15] = second compound 1 µM, first compound 0.1 µM
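Also: spheroids exposed to compounds for seven days before readout.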

- IC50 [1]: < 31.6 nM
- IC50 [2]: < 31.6 nM
- IC50 [3]: < 31.6 nM
- IC50 [4]: < 31.6 nM
- IC50 [5]: < 31.6 nM
Compound: C#Cc1c(F)ccc2cc(O)cc(-c3ncc4c(N5CC6CCC(C5)N6)nc(OCC56CCCN5CC(F)C6)nc4c3F)c12 (configuration not stated) + CNC(C)C(=O)NC1CN(S(=O)(=O)c2cccc(S(=O)(=O)N3CCC4CCC(C(=O)NC(c5ccccc5)c5ccccc5)N4C(=O)C(NC(=O)C(C)NC)C3)c2)CCC2CCC(C(=O)NC(c3ccccc3)c3ccccc3)N2C1=O
- viability, T/C [6]: 46.4%
- viability, T/C [7]: 44.1%
- viability, T/C (second compound 0.01 µM, first compound 0.316 µM): 55.5%
- viability, T/C (second compound 0.01 µM, first compound 1 µM): 54.6%
- viability, T/C (second compound 0.01 µM, first compound 3.16 µM): 36.6%
- viability, T/C (second compound 0.01 µM, first compound 10 µM): 2.18%
- viability, T/C [8]: 33.2%
- viability, T/C [9]: 36%
- viability, T/C (second compound 0.0316 µM, first compound 0.316 µM): 38.7%
- viability, T/C (second compound 0.0316 µM, first compound 1 µM): 48.3%
- viability, T/C (second compound 0.0316 µM, first compound 3.16 µM): 36.4%
- viability, T/C (second compound 0.0316 µM, first compound 10 µM): 2.06%
- viability, T/C [10]: 35.9%
- viability, T/C [11]: 42.6%
- viability, T/C (second compound 0.1 µM, first compound 0.316 µM): 54%
- viability, T/C (second compound 0.1 µM, first compound 1 µM): 28.7%
- viability, T/C (second compound 0.1 µM, first compound 3.16 µM): 24.8%
- viability, T/C (second compound 0.1 µM, first compound 10 µM): 1.01%
- viability, T/C [12]: 32.1%
- viability, T/C [13]: 33.9%
- viability, T/C (second compound 0.316 µM, first compound 0.316 µM): 30.9%
- viability, T/C (second compound 0.316 µM, first compound 1 µM): 34.9%
- viability, T/C (second compound 0.316 µM, first compound 3.16 µM): 13.9%
- viability, T/C (second compound 0.316 µM, first compound 10 µM): 0.34%
- viability, T/C [14]: 17.1%
- viability, T/C [15]: 31.2%
- viability, T/C (second compound 1 µM, first compound 0.316 µM): 31.7%
- viability, T/C (second compound 1 µM, first compound 1 µM): 22.8%
- viability, T/C (second compound 1 µM, first compound 3.16 µM): 10.5%
- viability, T/C (second compound 1 µM, first compound 10 µM): 0.34%

- IC50 [1]: < 0.316 nM
- IC50 [2]: < 0.316 nM
- IC50 [3]: < 0.316 nM
- IC50 [4]: < 0.316 nM
- IC50 [5]: < 0.316 nM
Compound: Cn1ncnc1[C@H]1c2n[nH]c(=O)c3cc(F)cc(c23)N[C@@H]1c1ccc(F)cc1 + CNC(C)C(=O)NC1CN(S(=O)(=O)c2cccc(S(=O)(=O)N3CCC4CCC(C(=O)NC(c5ccccc5)c5ccccc5)N4C(=O)C(NC(=O)C(C)NC)C3)c2)CCC2CCC(C(=O)NC(c3ccccc3)c3ccccc3)N2C1=O
- viability, T/C (second compound 0.01 µM, first compound 0.000316 µM): 39.3%
- viability, T/C (second compound 0.01 µM, first compound 0.001 µM): 45.2%
- viability, T/C (second compound 0.01 µM, first compound 0.00316 µM): 45.5%
- viability, T/C (second compound 0.01 µM, first compound 0.01 µM): 30.9%
- viability, T/C [6]: 26.4%
- viability, T/C [7]: 18.1%
- viability, T/C (second compound 0.0316 µM, first compound 0.000316 µM): 36.2%
- viability, T/C (second compound 0.0316 µM, first compound 0.001 µM): 42.9%
- viability, T/C (second compound 0.0316 µM, first compound 0.00316 µM): 33.4%
- viability, T/C (second compound 0.0316 µM, first compound 0.01 µM): 16.2%
- viability, T/C [8]: 18.1%
- viability, T/C [9]: 12.7%
- viability, T/C (second compound 0.1 µM, first compound 0.000316 µM): 26.2%
- viability, T/C (second compound 0.1 µM, first compound 0.001 µM): 33.2%
- viability, T/C (second compound 0.1 µM, first compound 0.00316 µM): 25.4%
- viability, T/C (second compound 0.1 µM, first compound 0.01 µM): 14.4%
- viability, T/C [10]: 13.7%
- viability, T/C [11]: 9.96%
- viability, T/C (second compound 0.316 µM, first compound 0.000316 µM): 31.5%
- viability, T/C (second compound 0.316 µM, first compound 0.001 µM): 23.6%
- viability, T/C (second compound 0.316 µM, first compound 0.00316 µM): 17.2%
- viability, T/C (second compound 0.316 µM, first compound 0.01 µM): 14.7%
- viability, T/C [12]: 6.84%
- viability, T/C [13]: 9.04%
- viability, T/C (second compound 1 µM, first compound 0.000316 µM): 13.7%
- viability, T/C (second compound 1 µM, first compound 0.001 µM): 19.7%
- viability, T/C (second compound 1 µM, first compound 0.00316 µM): 9.69%
- viability, T/C (second compound 1 µM, first compound 0.01 µM): 9.82%
- viability, T/C [14]: 9.01%
- viability, T/C [15]: 7.46%

- IC50 (curve of first compound, second compound 0.03 µM): 4.97 nM
- IC50 (curve of first compound, second compound 0.0949 µM): 3.99 nM
- IC50 (curve of first compound, second compound 0.3 µM): 6.47 nM
- IC50 (curve of first compound, second compound 0.949 µM): 5.41 nM
- IC50 (curve of first compound, second compound 3 µM): 3.15 nM
Compound: NC(=O)C(=Cn1cnc(-c2cc(C(F)(F)F)cc(C(F)(F)F)c2)n1)c1cncnc1 + CCN1C(C(=O)NC23CCC(C(=O)O)(CC2)CC3)C(c2cccc(Cl)c2F)C2(C(=O)Nc3cc(Cl)ccc32)C12CCCCC2
- viability, T/C (second compound 0.03 µM, first compound 0.000949 µM): 92%
- viability, T/C (second compound 0.03 µM, first compound 0.003 µM): 71.4%
- viability, T/C (second compound 0.03 µM, first compound 0.00949 µM): 22.4%
- viability, T/C (second compound 0.03 µM, first compound 0.03 µM): 12.8%
- viability, T/C (second compound 0.03 µM, first compound 0.0949 µM): 7.75%
- viability, T/C (second compound 0.03 µM, first compound 0.3 µM): 7.18%
- viability, T/C (second compound 0.0949 µM, first compound 0.000949 µM): 84%
- viability, T/C (second compound 0.0949 µM, first compound 0.003 µM): 56%
- viability, T/C (second compound 0.0949 µM, first compound 0.00949 µM): 31.7%
- viability, T/C (second compound 0.0949 µM, first compound 0.03 µM): 14.7%
- viability, T/C (second compound 0.0949 µM, first compound 0.0949 µM): 8.83%
- viability, T/C (second compound 0.0949 µM, first compound 0.3 µM): 5.38%
- viability, T/C (second compound 0.3 µM, first compound 0.000949 µM): 74.2%
- viability, T/C (second compound 0.3 µM, first compound 0.003 µM): 75.5%
- viability, T/C (second compound 0.3 µM, first compound 0.00949 µM): 37.6%
- viability, T/C (second compound 0.3 µM, first compound 0.03 µM): 13.3%
- viability, T/C (second compound 0.3 µM, first compound 0.0949 µM): 7.32%
- viability, T/C (second compound 0.3 µM, first compound 0.3 µM): 4.64%
- viability, T/C (second compound 0.949 µM, first compound 0.000949 µM): 83.9%
- viability, T/C (second compound 0.949 µM, first compound 0.003 µM): 66.7%
- viability, T/C (second compound 0.949 µM, first compound 0.00949 µM): 34.4%
- viability, T/C (second compound 0.949 µM, first compound 0.03 µM): 11.9%
- viability, T/C (second compound 0.949 µM, first compound 0.0949 µM): 8.43%
- viability, T/C (second compound 0.949 µM, first compound 0.3 µM): 5.55%
- viability, T/C (second compound 3 µM, first compound 0.000949 µM): 72.8%
- viability, T/C (second compound 3 µM, first compound 0.003 µM): 49.2%
- viability, T/C (second compound 3 µM, first compound 0.00949 µM): 32.9%
- viability, T/C (second compound 3 µM, first compound 0.03 µM): 16%
- viability, T/C (second compound 3 µM, first compound 0.0949 µM): 5.81%
- viability, T/C (second compound 3 µM, first compound 0.3 µM): 6.67%

- IC50 (curve of compound): 31.3 nM and 46.2 nM and 104 nM
Compound: COc1c(OCCCN2CCOCC2)ccc2c3n(c(=NC(=O)c4cnc(N)nc4)nc12)CCN3
- viability, T/C (compound 0.00316 µM): 81.5% and 75.7% and 125%
- viability, T/C (compound 0.01 µM): 68.4% and 71.7% and 105%
- viability, T/C (compound 0.0316 µM): 48.4% and 58.9% and 88.5%
- viability, T/C (compound 0.1 µM): 32.9% and 32.1% and 51.3%
- viability, T/C (compound 0.316 µM): 11.3% and 12% and 19.7%
- viability, T/C (compound 1 µM): 5.83% and 6.96% and 8.42%
